# Source: patent US11484539B2, “Compounds and their uses for alleviating menopause-associated symptoms” (Estetra SPRL, priority 2018, dated 2022)
# Test system: post-menopausal women
# Test: Number of patients with biopsies (endometrial biopsy)
# Type: in vivo
# Protocol: If during the course of the trial, a double layer endometrial thickness ≥15 mm was detected on TVUS and/or abnormal uterine bleeding (in the judgement of the gynecologist in light of the oestrogen therapy) was reported by a non-hysterectomised person, they underwent an endometrial biopsy and was treated with progestin (10 mg dydrogesterone) QD until end of Week 11 in a sequential way (i.e., a 14 day progestin treatment period followed by a 14 day progestin treatment pause) in addition to the E4/placebo treatment. […] If an abnormal uterine bleeding occurred again after a first normal endometrial biopsy, a thorough gynaecological examination and a TVUS were performed. If necessary in the judgment of the gynecologist, a second endometrial biopsy was performed. After the E4/Placebo treatment period, all non-hysterectomised subjects (including those having received the progestin previously) received progestin therapy for 14 days with 10 mg dydrogesterone QD.
# 1. Number of patients with biopsies
smiles,measurement,setting,value
"C[C@]12CC[C@@H]3c4ccc(O)cc4CC[C@H]3[C@@H]1[C@@H](O)[C@@H](O)[C@@H]2O [E4, 1,3,5 (10)-estratrien-3,15alpha,16alpha,17beta-tetrol]",Number of patients with biopsies,2.5 mg,4
same,Number of patients with biopsies,5 mg,5
same,Number of patients with biopsies,10 mg,11
same,Number of patients with biopsies,15 mg,9
same,Requirements for biopsies compared with the 10 mg per day group,15 mg per day group,less requirements for biopsies
